Active and inactive are the calls of the source. The calls are words filed in the database; no cut-off is given here.

This is an account of results in ChEMBL document CHEMBL2062376, “Novel oxazolo[4,5-g]quinazolin-2(1H)-ones: dual inhibitors of EGFR and Src protein tyrosine kinases” (Eur J Med Chem, 2012).

In assay [1] the target is T1, Epidermal growth factor receptor (Homo sapiens, UniProt P00533).
The target of assay [2] is Proto-oncogene tyrosine-protein kinase Src (Homo sapiens, UniProt P12931). Description: Inhibition of SRC.
For another assay, the system named is KB. As to the kind of experiment: Antiproliferative activity against human KB cells expressing EGFR and SRC by MTT assay. It is filed as functional, cell-based.
The subject of another assay is A498. Description: Antiproliferative activity against human A498 cells expressing EGFR and SRC by MTT assay. The assay is classed as functional, cell-based.
Assay [3] concerns the target T1, Epidermal growth factor receptor. Description: Inhibition of EGFR at >100 uM.

T1 sequence (P00533 whole entry): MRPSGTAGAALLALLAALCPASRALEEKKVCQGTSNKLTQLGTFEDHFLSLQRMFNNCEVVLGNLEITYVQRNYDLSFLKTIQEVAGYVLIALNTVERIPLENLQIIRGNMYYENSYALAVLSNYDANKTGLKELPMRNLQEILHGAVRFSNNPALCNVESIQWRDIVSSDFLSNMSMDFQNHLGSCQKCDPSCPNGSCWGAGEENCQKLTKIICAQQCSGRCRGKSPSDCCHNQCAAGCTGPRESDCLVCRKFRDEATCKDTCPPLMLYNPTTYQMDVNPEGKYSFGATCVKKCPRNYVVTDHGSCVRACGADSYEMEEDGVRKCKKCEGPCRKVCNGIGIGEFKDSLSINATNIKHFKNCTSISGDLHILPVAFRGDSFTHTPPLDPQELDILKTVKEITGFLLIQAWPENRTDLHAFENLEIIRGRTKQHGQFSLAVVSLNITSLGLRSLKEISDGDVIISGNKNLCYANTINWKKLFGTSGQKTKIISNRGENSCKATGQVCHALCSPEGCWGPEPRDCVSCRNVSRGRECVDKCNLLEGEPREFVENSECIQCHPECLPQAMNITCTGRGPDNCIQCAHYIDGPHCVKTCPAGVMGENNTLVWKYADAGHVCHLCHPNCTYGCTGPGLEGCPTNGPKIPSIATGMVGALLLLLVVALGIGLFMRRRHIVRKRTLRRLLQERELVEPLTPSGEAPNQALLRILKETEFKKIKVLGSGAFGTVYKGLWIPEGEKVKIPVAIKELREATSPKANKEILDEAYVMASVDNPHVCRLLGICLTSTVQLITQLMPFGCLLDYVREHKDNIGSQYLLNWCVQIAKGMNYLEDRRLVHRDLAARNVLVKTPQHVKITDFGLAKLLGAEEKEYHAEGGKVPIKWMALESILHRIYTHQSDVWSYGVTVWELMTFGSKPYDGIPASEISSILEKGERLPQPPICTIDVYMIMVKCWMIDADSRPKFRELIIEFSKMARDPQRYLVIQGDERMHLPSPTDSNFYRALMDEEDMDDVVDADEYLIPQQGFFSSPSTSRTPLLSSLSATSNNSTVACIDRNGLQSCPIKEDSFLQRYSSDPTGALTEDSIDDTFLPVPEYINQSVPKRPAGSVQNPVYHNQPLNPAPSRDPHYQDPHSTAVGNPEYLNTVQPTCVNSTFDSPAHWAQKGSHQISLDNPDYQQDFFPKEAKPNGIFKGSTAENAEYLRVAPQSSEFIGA
Sequence of Proto-oncogene tyrosine-protein kinase Src (P12931 2-536 limits assumed): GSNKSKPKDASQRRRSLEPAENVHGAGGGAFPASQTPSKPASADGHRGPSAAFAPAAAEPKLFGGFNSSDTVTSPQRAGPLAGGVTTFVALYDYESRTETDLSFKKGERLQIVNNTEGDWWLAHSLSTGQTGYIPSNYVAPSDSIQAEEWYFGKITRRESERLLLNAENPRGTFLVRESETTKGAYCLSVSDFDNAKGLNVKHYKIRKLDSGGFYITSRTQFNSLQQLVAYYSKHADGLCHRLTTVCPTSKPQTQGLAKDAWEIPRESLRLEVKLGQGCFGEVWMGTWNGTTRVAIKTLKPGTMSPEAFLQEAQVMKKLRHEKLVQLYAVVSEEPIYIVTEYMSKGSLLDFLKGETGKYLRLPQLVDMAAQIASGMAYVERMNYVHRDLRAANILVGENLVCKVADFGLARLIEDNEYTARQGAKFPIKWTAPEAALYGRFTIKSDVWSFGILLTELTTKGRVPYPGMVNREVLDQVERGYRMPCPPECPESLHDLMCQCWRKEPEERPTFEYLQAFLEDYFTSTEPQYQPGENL

Usually IC50 stands for the concentration needed to halve the response being measured. Lower therefore signals greater potency in that assay. In the case of `O=c1oc2cc3ncnc(NCc4ccccc4)c3cc2n1CCCN1CCOCC1`, 65 µM corresponded to half-maximal inhibition in assay [1] (IC50).
Turning to `CCOC(=O)c1ccc(Nc2ncnc3cc4oc(=O)n(CCCN5CCOCC5)c4cc23)cc1`, the half-inhibitory concentration (IC50) was 5.8 µM in assay [1], 3.1 µM in assay [2], 6 µM with KB and 8.8 µM in the assay with A498.
Take `C[C@@H](Nc1ncnc2cc3oc(=O)n(CCCN4CCOCC4)c3cc12)c1ccccc1`: the IC50 in assay [1] amounted to 4.5 µM.
For the compound `Cc1cc(C)cc(Nc2ncnc3cc4oc(=O)n(CCCN5CCOCC5)c4cc23)c1`, in assay [1], the midpoint of inhibition, the IC50, lay at 75 µM.
Still for that read-out and setting: for `O=c1oc2cc3ncnc(Nc4ccccc4O)c3cc2n1CCCN1CCOCC1` the value was 30 µM; for `O=c1oc2cc3ncnc(Nc4ccc(F)c(F)c4)c3cc2n1CCCN1CCOCC1`, 0.57 µM.
On the same count and under the same terms, for `C[C@H](Nc1ncnc2cc3oc(=O)n(CCCN4CCOCC4)c3cc12)c1ccccc1` the value was 3.7 µM.
Turning to `Cc1ccc(Nc2ncnc3cc4oc(=O)n(CCCN5CCOCC5)c4cc23)cc1`, the 50% inhibitory concentration (IC50) was determined as 0.067 µM in assay [1] and 7.5 µM in assay [2].
`O=c1oc2cc3ncnc(Nc4ccc(Cl)cc4)c3cc2n1CCCN1CCOCC1`: the inhibition result in assay [3] is “inactive”.
Still for that read-out and setting: then `CN1CCN(c2ncnc3cc4oc(=O)n(CCCN5CCOCC5)c4cc23)CC1`, with “inactive”; and `CC(=O)Nc1ccc(Nc2ncnc3cc4oc(=O)n(CCCN5CCOCC5)c4cc23)cc1`, with “inactive”.
Consider `O=c1oc2cc3ncnc(Nc4ccc(OCc5ccccc5)cc4)c3cc2n1CCCN1CCOCC1`, for which the half-inhibitory concentration (IC50) amounted to 0.14 µM in assay [1], 37.6 µM in the assay with KB and 14.8 µM in the assay on A498.
`COc1ccc(Nc2ncnc3cc4oc(=O)n(CCCN5CCOCC5)c4cc23)cc1` had a half-inhibitory concentration (IC50) in assay [1] of 0.38 µM.
Turning to `O=c1oc2cc3ncnc(Nc4ccc(F)c(Cl)c4)c3cc2n1CCCN1CCOCC1`, the half-maximal inhibitory concentration (IC50) came to 0.078 µM in assay [1], 6.5 µM in the assay on KB and 32 µM in the assay with A498.
Consider `CC(=O)c1cccc(Nc2ncnc3cc4oc(=O)n(CCCN5CCOCC5)c4cc23)c1`, for which the IC50 in assay [1] is 6.8 µM. This counts as single-digit micromolar.
On to `O=c1oc2cc3ncnc(N[C@H]4CC[C@H](O)CC4)c3cc2n1CCCN1CCOCC1`, for which the inhibition entry in assay [3] was “inactive”.
For `O=c1oc2cc3ncnc(Nc4ccc(OCc5ccccn5)cc4)c3cc2n1CCCN1CCOCC1`, in assay [1], the IC50 was found to be 1.7 µM.
The same measure, in the same setting: for `CC(C)(C)c1ccc(Nc2ncnc3cc4oc(=O)n(CCCN5CCOCC5)c4cc23)cc1` the value was 79 µM.
As for `O=C(OCc1ccc(Cl)cc1)c1ccc(Nc2ncnc3cc4oc(=O)n(CCCN5CCOCC5)c4cc23)cc1`, the inhibition result in assay [3] was “inactive”.
Consider `O=c1oc2cc3ncnc(Nc4ccc(OCc5ccc(Cl)cc5)cc4)c3cc2n1CCCN1CCOCC1`, for which the figures for the half-inhibitory concentration (IC50) (in assay [1]; with KB; in the assay with A498) were 0.99 µM, 37.1 µM and 7.4 µM, respectively.
Consider `Cc1ccccc1Nc1ncnc2cc3oc(=O)n(CCCN4CCOCC4)c3cc12`, for which the inhibition result in assay [3] was “inactive”.
In the case of `O=c1oc2cc3ncnc(Nc4ccc(O)cc4)c3cc2n1CCCN1CCOCC1`, in assay [3], the inhibition entry is “inactive”. In addition, the IC50 in assay [2] stood at 66 µM.
Regarding `Cc1c(OCC(F)(F)F)ccnc1COc1ccc(Nc2ncnc3cc4oc(=O)n(CCCN5CCOCC5)c4cc23)cc1`, in assay [1], the midpoint of inhibition, the IC50, lay at 7.8 µM. In other words, the single-digit micromolar range.
Consider `O=c1oc2cc3ncnc(Nc4ccc5[nH]ncc5c4)c3cc2n1CCCN1CCOCC1`, for which the values for the IC50 (in assay [1]; in the assay on KB; in the assay with A498) were 0.12 µM, 18.5 µM and 18.7 µM, respectively.
Take `CCOC(=O)c1ccc(O)c(Nc2ncnc3cc4oc(=O)n(CCCN5CCOCC5)c4cc23)c1`: the IC50 in assay [1] worked out at 0.23 µM; with KB, 8.1 µM; with A498, 15.7 µM.
With `CC(C)Oc1cccc(Nc2ncnc3cc4oc(=O)n(CCCN5CCOCC5)c4cc23)c1`, half-maximal inhibition in assay [1] (IC50) required 3 µM.
Regarding `COc1ccc(Nc2ncnc3cc4oc(=O)n(CCCN5CCOCC5)c4cc23)cc1OC`, the inhibition entry in assay [3] is “inactive”.
In assay [1], `CN(c1ccccc1)c1ncnc2cc3oc(=O)n(CCCN4CCOCC4)c3cc12` displayed an IC50 of 7.2 µM.
Consider `NS(=O)(=O)c1ccc(Nc2ncnc3cc4oc(=O)n(CCCN5CCOCC5)c4cc23)cc1`, for which the inhibition entry in assay [3] was “inactive”.
Compound `CN(C)S(=O)(=O)c1ccc2c(c1)/C(=C/c1cc3c([nH]1)CCCC3)C(=O)N2` came in with a half-maximal inhibitory concentration (IC50) in assay [2] of 0.073 µM.
In the case of `O=c1oc2cc3ncnc(Nc4ccc(OCc5ccc(Cl)cc5)c(Cl)c4)c3cc2n1CCCN1CCOCC1`, the half-maximal inhibitory concentration (IC50) was found to be 0.061 µM in assay [1], 0.82 µM in the assay on KB and 3 µM in the assay with A498.
With `C#Cc1cccc(Nc2ncnc3cc4oc(=O)n(CCCN5CCOCC5)c4cc23)c1`, the 50% inhibitory concentration (IC50) in assay [1] stood at 0.38 µM.
Consider `Cc1c(OCC(F)(F)F)ccnc1COc1cccc(Nc2ncnc3cc4oc(=O)n(CCCN5CCOCC5)c4cc23)c1`, for which the IC50 in assay [1] amounted to 0.099 µM; with KB, 16 µM; with A498, 35.3 µM.
